Active and inactive are the calls of the source. No cut-off for these calls is given here.
Tested on: NUGC
Assay: Cytotoxicity against human NUGC cells at 10 uM
Format: functional, cell-based

Row | SMILES | Activity
1 | C#CC(O)/C=C/CCCCCCCCC/C=C\CCCCCCCCC/C=C/C(O)C#C (configuration not stated) | Active
2 | C#CC(O)/C=C/CCCCCCCCCCCCC#CCCCCCCCCCCC#CC#CCO (configuration not stated) | Active
